In patent US5362728A, “4,5-bridged-2,3,4,5-tetrahydro-1H-3-benzazepine-7-ols and derivatives and compositions and methods employing such compounds” (Schering Corporation, priority 1992, dated 1994):
pKi: −log10 of the molar value. Where two headings read alike, the source gives them in different places.

Key:
dopamine D-1 receptor = target: T1, dopamine D-1 receptor (Rattus norvegicus, UniProt P18901); experiment: Competitive inhibition assay, 3H-SCH 23390 binding (D-1), rat striatal tissue; set-up: species or system rat (male Sprague-Dawley); details: for Ki: Col. 7, 3H-SCH 23390 0.3 nM, rat striatum, 37° C., 15 min, pH 7.4, read-out: Ki (nM) 3H-Sch23390
T1 construct: Striatal tissue is excised, pooled, and homogenized; from tissue; host or cells: rat striatum, washed membrane homogenate
From the text: (§1) A methodology for characterization of D-1 and D-2 receptor binding and an interpretation of the data are described by Billard et al., Life Sciences 35, 1885 (1984) in which the binding of the benzazepine (R)-(+)-8-chloro-2,3,4,5-tetrahydro-3-methyl-5-phenyl-1H-3-benzazepin-7-olhemimaleate (SCH 23390) to the dopamine D-1 receptor is characterized. A selectivity for D-1 receptor binding as compared to D-2 receptor binding .is believed to confer the therapeutic advantage of avoiding troublesome and potentially irreversible neurological side effects associated with D-2 receptor occupancy.
(§2) Tritiated SCH 23390 and tritiated spiperone (a potent D-2 receptor ligand) are obtained as described in the Billard et al. reference supra and serially diluted in 0.05M Tris buffer, pH 7.4, as required. Compounds of this invention are synthesized as disclosed herein and diluted in 0.05M Tris buffer, pH 7.4, as required.
(§3) Male Sprague-Dawley rats (200 to 250 g) from Charles River Breeding Laboratories, Mass. are used to obtain brain tissue. The rats are humanely sacrificed and their brains removed and placed on ice. Striatal tissue is excised, pooled, and homogenized (Brinkman Polytron, 10 sec) in 100 volumes (w/v) of ice cold 50 mM Tds buffer, pH 7.4 (at 25° C.). The homogenate is centrifuged at 20,000 xg for 10 min. The resultant pellet is rehomogenized in Tris buffer and centrifuged again. The final pellet is resuspended in 50 mM Tris buffer pH 7.4 containing 120 mM NaCl, 5 mM KCl, 2 mM CaCl2, and 1 mM MgCl2.
(§4) Polypropylene incubation tubes receive 100 μl of the individual test compounds at vadous concentrations dissolved or suspended in 0.05M Tris, pH 7.4 containing 4 mg/ml methylcellulose, 100 μl of a solution of ^3 H-SCH 23390 in Tris buffer (final reaction mixture concentration=0.3 nM) or 100 μl of a solution of ^3 H-spiperone in Tris buffer (final concentration=0.2 nM) and 800 μl of tissue suspension (ca. 3 mg/assay). Tubes are incubated at 37° C. for 15 minutes and rapidly vacuum filtered through Whatman GF/B filters and rinsed 4 times with 4 ml of ice cold 50 mM Tds buffer, pH 7.4. The filters are transferred to scintillation vials, equilibated with 10 ml of scintillant (Scintosol, Isolab, Inc.) for 16 hours at 25° C. and the radioactivity determined in a liquid scintillation counter, Ki values are determined as described by Billard et al. using the relationship Kj = IC50 /(1+([L]/KD)) wherein IC50 =concentration of test drug necessary to displace 50% of specifically bound ^3 H-Sch 23390, [L]=concentration of radioligand used in the assay, and KD =dissociation constant.

D-2 receptor = target: T2, D-2 receptor (Rattus norvegicus, UniProt P61169); experiment: Competitive inhibition assay, 3H-spiperone binding (D-2), rat striatal tissue; set-up: species or system rat (male Sprague-Dawley); details: for Ki: Col. 8, 3H-spiperone 0.2 nM, rat striatum, 37° C., 15 min, pH 7.4, read-out: Ki (nM) 3H-Spip
T2 construct: Striatal tissue is excised, pooled, and homogenized; from tissue; host or cells: rat striatum, washed membrane homogenate
From the text: as §1, §2, §3, §4

squirrel monkey = experiment: Squirrel monkey conditioned avoidance response (CAR) test; format: in vivo; details: Primates, po, read-out: CAR(MED) Sq. Monkey @ 1 hr
From the text: SQUIRREL MONKEY CONDITIONED AVOIDANCE RESPONSE (CAR) TEST
This test is designed to measure the potency of candidate compounds in a primate species.
Male or female squirrel monkeys weighing 800-1200 g housed one per cage are utilized. Initially each monkey is taught to terminate a 3 mA electric shock delivered through the grid floor of the test cage and an overlapping tone by depressing a lever in the cage.
In the second phase of the testing, a ten second tone is turned on prior to the shock component. A lever press during the sounding of the tone terminates the tone and prevents the occurrence of the shock component and is denoted as an "avoidance".
The compound testing is commenced after three consecutive days of re-testing. […] The monkey must achieve at least an 85% correct avoidance before drug testing commences. If this minimal avoidance level is achieved, the next day the monkey is orally dosed or injected with the subject compounds in the appropriate vehicle and the number of avoidances are recorded. An animal is defined as having been "affected" by any drug treatment if there is a 50% loss of avoidance behavior relative to the performance of the animal when only the vehicle is injected. The minimal effective dose (MED) is defined as that dose producing an effect in at least 50% of the animals.
A test may be conducted to determine the effective potency of a compound in accordance with the present invention by comparing a compound of the invention to a known compound, (R)-(+)-8-chloro-2,3,4,5-tetrahydro-3-methyl-5-phenyl-1H-3-benzazepin-7-olhemimaleate, denoted as Compound B (Sch 23390). A compound of the invention administered 60 minutes prior to the test is compared to compound B administered 30 minutes prior to test.

[1] = Col. 9, p.o., 1 hr, minimal effective dose = dose producing an effect in at least 50% of the animals

T1 sequence (P18901 whole entry): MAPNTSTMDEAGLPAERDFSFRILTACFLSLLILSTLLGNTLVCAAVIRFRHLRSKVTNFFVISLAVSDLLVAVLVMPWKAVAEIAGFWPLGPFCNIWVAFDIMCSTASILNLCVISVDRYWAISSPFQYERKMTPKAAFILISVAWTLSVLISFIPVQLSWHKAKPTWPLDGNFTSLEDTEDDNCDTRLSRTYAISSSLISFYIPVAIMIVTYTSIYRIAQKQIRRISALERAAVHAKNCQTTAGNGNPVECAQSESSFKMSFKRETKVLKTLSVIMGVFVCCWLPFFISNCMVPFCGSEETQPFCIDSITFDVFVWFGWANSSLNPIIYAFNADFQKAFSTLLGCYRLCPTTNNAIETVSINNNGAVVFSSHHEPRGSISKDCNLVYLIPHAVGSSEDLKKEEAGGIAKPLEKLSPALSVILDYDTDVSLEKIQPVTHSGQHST
T2 sequence (P61169 whole entry): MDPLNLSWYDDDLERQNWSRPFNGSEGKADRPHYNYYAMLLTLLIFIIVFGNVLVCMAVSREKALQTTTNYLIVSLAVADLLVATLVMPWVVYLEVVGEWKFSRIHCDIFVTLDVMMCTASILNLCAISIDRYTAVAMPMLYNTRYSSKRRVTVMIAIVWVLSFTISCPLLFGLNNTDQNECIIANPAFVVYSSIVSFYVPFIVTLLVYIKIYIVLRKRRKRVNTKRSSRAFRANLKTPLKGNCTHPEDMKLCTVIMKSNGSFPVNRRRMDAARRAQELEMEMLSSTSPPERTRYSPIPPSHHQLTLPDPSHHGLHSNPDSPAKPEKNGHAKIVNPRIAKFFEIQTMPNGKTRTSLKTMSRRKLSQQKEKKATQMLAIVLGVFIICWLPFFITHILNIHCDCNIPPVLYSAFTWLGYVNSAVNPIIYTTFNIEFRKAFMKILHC

Row | SMILES | Ki (dopamine D-1 receptor) | Ki (D-2 receptor) | minimal effective dose (squirrel monkey; 1 h) | pKi (dopamine D-1 receptor) | pKi (D-2 receptor) | minimal effective dose (squirrel monkey; [1])
1 | CCCCC(=O)Oc1cc2c(cc1Cl)CCN(C)C1CCCC21 (centres unmarked) | 24 nM | 177 nM | – | – | – | –
2 | Cc1ccc(NC(=O)Oc2cc3c(cc2Cl)CCN(C)[C@@H]2CCC[C@@H]32)c(C)c1 (relative stereo) | – | – | > 3 mg/kg | 8.11 | 6.37 | –
3 | CC(C)c1ccc(NC(=O)Oc2cc3c(cc2Cl)CCN(C)[C@@H]2CCC[C@@H]32)cc1 (relative stereo) | – | – | – | 8.27 | 6.37 | –
4 | Cc1cc2c(cc1O)[C@H]1[C@@H](CC[C@@H]1C)N(C)CC2 (relative stereo) | 14 nM | 840 nM | – | – | – | 3 mg/kg
5 | C[C@H]1CC[C@@H]2[C@@H]1c1cc(O)c(Cl)cc1CCN2C (relative stereo) | 3 nM | 350 nM | – | – | – | > 10 mg/kg
6 | CN1CCc2cc(Cl)c(O)cc2[C@@H]2CCC[C@H]21 (relative stereo) | 2.8 nM | 380 nM | – | – | – | > 10 mg/kg
7 | CN1CCc2ccc(O)cc2[C@@H]2CCC[C@H]21 (relative stereo) | 335 nM | 2320 nM | – | – | – | –
8 | C[C@H]1CC[C@@H]2[C@@H](C1)c1cc(O)c(Cl)cc1CCN2C (relative stereo) | 70 nM | > 10000 nM | – | – | – | > 10 mg/kg
9 | Cc1cc2c(cc1O)[C@@H]1CCCC[C@H]1N(C)CC2 (relative stereo) | 70 nM | 71000 nM | – | – | – | > 10 mg/kg
10 | Oc1cc2c(cc1Cl)CCN[C@@H]1CCC[C@@H]21 (relative stereo) | 96 nM | 1300 nM | – | – | – | –
